From patent US8217071B2, “Use of inhibitors of the degradation of p27, in particular Argyrin and derivatives thereof, for the treatment of proliferative diseases” (Helmholtz Zentrum für Infektionsforschung GmbH, priority 2007, dated 2012) come the findings set out here.

Converted amounts (≈) assume the structure as drawn. Numbered stars: 1 amine (or outer) side, 2 acyl side, 3 side chain; on linkers, the order of the positions; unused ones are H or OH. Square brackets hold non-standard residues; d marks the D form. Peptide text beside a SMILES is read from it. dAla(ψthiazole) = C[C@@H](N[*:1])c1nc(C(=O)[*:2])cs1; Trp(4-OMe) = COc1cccc2[nH]cc(C[C@H](N)C(=O)O)c12; Dha = C=C(N)C(=O)O; Sar = CNCC(=O)O

Common to all, as to format: cell-based, human
In assay [1] the test system is CaCo colon carcinoma cell line. The assay can be described thus: Flow cytometry cell cycle / sub-G1 analysis. The following applies: at ranges of IC50; sub G1 phase fraction. The method, then: (§1) The expression levels of p27^kip1 were determined at the indicated timepoints by western blotting and normalized against actin expression which was used as an internal control.
(§2) MTT assays were done as previously described (Sasse, F. et al. Argyrins, immunosuppressive cyclic peptides from myxobacteria. I. Production, isolation, physico-chemical and biological properties. J Antibiot (Tokyo) 55, 543-51 (2002)). TUNEL staining of tissue sections was performed on 10 micrometer sections which were deparafinised and treated as recommended by the manufacturer. (In Situ Cell Death Detection Kit, Fluorescein; ROCHE, Cat #11 684 795 910). Flow cytometric analysis of cultured cells was done using a Becton Dickinson fluorescence cytometer as previously described (Malek, N. P. et al. A mouse knock-in model exposes sequential proteolytic pathways that regulate p27^Kip1 in G1 and S phase. Nature 413, 323-7 (2001)). Analysis of the distribution of cells in the cell cycle and the sub-G1 fraction was done using Cell Quest software. A histone-associated-DNA-fragments ELISA was used to determine the number of apoptotic cells according to manufacturers instructions (Roche #11 774425001).
For orientation: Flow cytometry measures light scatter and fluorescence of single cells or particles in a stream.

For assay [2], the system named is SW480 colon carcinoma cell line. Put plainly: Flow cytometry cell cycle / sub-G1 analysis. The following applies: at ranges of IC50; sub G1 phase fraction. The method, then:
as §1, §2

The next assay relates to MCF7 (breast cancer). Put plainly: Flow cytometry cell cycle / sub-G1 analysis. The following applies: at ranges of IC50; sub G1 phase fraction. How it is done:
as §1, §2

A further assay has as its system HeLa (cervix carcinoma). Put plainly: Flow cytometry cell cycle / sub-G1 analysis. The following applies: at ranges of IC50; sub G1 phase fraction. The method, then:
as §1, §2

In a further assay the test system is A549 (lung cancer). Put plainly: Flow cytometry cell cycle / sub-G1 analysis. The note with it: at ranges of IC50. How it is done: as §1, §2
In assay [3] the test system is HCT116 colon carcinoma cells. The assay can be described thus: Flow cytometry cell cycle / sub-G1 analysis. The note with it: at ranges of IC50. How it is done: as §1, §2
In assay [4] the test system is p27^kip1-GFP fusion protein in HeLa cells. Put plainly: High throughput screen for p27 stabilizing substances. The note with it: 70 nM. The text has this:
To identify substances which lead to an increase in the expression levels of p27^kip1 the inventors generated a cell based high throughput assay system (see materials and methods for details). […] As shown by flow cytometry, Argyrin A exerted two different cellular phenotypes at ranges of IC50. […] The apoptosis inducing activity of Argyrin A was confirmed by measuring DNA fragmentation using a histone fragmentation ELISA (FIG. 5B).
A cellular high throughput screen for p27 stabilizing compounds was established by stably introducing a DNA plasmid (EGFP-N1, Clontech) which allows the expression of p27^kip1-GFP fusion protein in HeLa cells. p27-GFP expressing cells were selected with neomycin and several independent clones were subcultured. HeLa p27-GFP cells were seeded in 384 well plates (Corning) and incubated with a set of highly diverse natural products (part of the Helmholtz Center for Infection Research myxobacterial metabolite collection) at a concentration of 70 nM. GFP emission was determined by fluorometric measurements using a Victor 1420 multilabel counter (Perkin Elmer) at 3 h, 24 h, 48 h and 60 h after the start of treatment. The proteasome inhibitor MG132 was used as a positive control.

Assay [5] has as its system p27-GFP (clone H15GFP-p27, HeLa-cell line; cervix-carcinoma). Put plainly: GFP-fluorescence per FACS in clone H15GFP-p27. The following applies: GFP-fluorescence per FACS after 24 h incubation, 500 ng/ml. The text has this: Human p27cDNA (in plasmid vector CS2+) was digested with EcoR1 and BamH1, and the resulting fragment was ligated after gel purification into the vector pEGFP-N1 (Clontech) that was cut with the same restriction enzymes. Thus, a […] fusion with the GFP as contained in the pEGFP-vector was generated. The plasmid was then transfected into Hela cells, and, following selection of the cells with kanamycin, cellular clones were isolated which had the plasmid integrated stably into their chromosome. The expression of the p27EGFP proteins was confirmed using Western blots and immune precipitations for both p27 and GFP.
(§3) The following table summarizes the effects of argyrin-derivatives A to H on two cancer cell lines, H15 (cervix carcinoma) and SW-480 (colon cancer). In order to test the efficacy, a p27-GFP-clone was used.

A further assay has as its system H15 (cervix carcinoma). Put plainly: MIC (visual), serial dilution, H15. The note with it: minimal concentration of a serial dilution exhibiting a visual effect.
Description: as §3

For another assay, the system named is HeLa cells. Put plainly: Apoptosis in HeLa cells with p27^kip1 specific siRNA. The note with it: 24 or 48 hours. The text has this: Next the inventors tested whether the stabilization of p27 was indeed required for the apoptosis inducing function of Argyrin A or was merely a consequence of proteasome inhibition. For this the inventors treated immortalized mouse embryonic fibroblasts from p27^kip1 wildtype or knockout mice with Argyrin A or the proteasome inhibitor bortezomib and assayed cell cycle distribution and apoptosis by flow cytometry. […] These differences in sensitivity in response to Argyrin A treatment were not due to differences in the accumulation of other proteasomal substrates in p27 wildtype and knockout cells as p53 and p21 levels increased in both cell lines in response to Argyrin A (FIG. 6B). To extend this observation to human cancer cells the inventors reduced the levels of p27^kip1 in HeLa cells using p27^kip1 specific siRNA.
The results shown are the average numbers for six independent experiments. b+d) Wildtype (b) and p27 knockout (d) MEF were treated with Argyrin A or transfected with siRNAs specific for the β1, β2 or β5 subunit of the proteasome for 24 hours. The graphs show the remaining catalytic activity of the different proteasome subunits after Argyrin A or siRNA treatment compared to an untreated control (n=3). […]

As to `C=C1NC(=O)[C@@H](C)NC(=O)CNC(=O)[C@H](Cc2c[nH]c3cccc(OC)c23)NC(=O)[C@H](Cc2c[nH]c3ccccc23)NC(=O)c2csc(n2)[C@@H](C)NC(=O)CN(C)C1=O` [Argyrin A] (cyclo(W[Trp(4-OMe)]G[dA][Dha][Sar][dAla(ψthiazole)])), the cellular phenotype result in assay [1] is “underwent apoptosis”; in assay [2] it was “underwent apoptosis”; in the assay on MCF7 (breast cancer), “underwent apoptosis”; with HeLa (cervix carcinoma) it was “underwent apoptosis”; with A549 (lung cancer), “stopped to proliferate”; in assay [3] it was “stopped to proliferate”. In assay [4], the “increase in fluorescence (p27-GFP)” value is “strongest increase in fluorescence”. Moreover, in assay [5], the “Mean of FSC-H (Log) H15 p27-GFP-clone” value amounted to 8.52. Further, in the assay with H15 (cervix carcinoma), the “MIC (visual) H15” value came out at 4 µg/mL (≈ 4.85 µM). In the assay with HeLa cells, the “apoptosis inducing function in HeLa cells treated with p27siRNA” value was “completely blocked”.
